Experimental data published in PubChem BioAssay AID1845196 (Molecular Pharmacology Branch, DTP, NCI, 2023).

Tested on: 292921-168-R tumor spheroid viability
Assay: Anticancer human tumor 292921-168-R patient-derived pancreatic carcinoma cell line growth inhibition
Details: spheroids with HUVEC and MSC; for IC50: curve of first compound; for viability, T/C: stronger effect = lower value
In short: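 Complex spheroids of malignant cells with endothelial cells and mesenchymal stem cells; agents alone or combined, from near clinical Cmax (or 10 microM if unknown) down in half-log steps, 0.25% DMSO final.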
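Note: spheroids exposed to compounds for 7 days.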

Cn1ncnc1[C@H]1c2n[nH]c(=O)c3cc(F)cc(c23)N[C@@H]1c1ccc(F)cc1 + Cn1nnc2c(C(N)=O)ncn2c1=O was tested, and the IC50 (second compound 1 µM) was 393 nM, the IC50 (second compound 3.16 µM) was 439 nM and the IC50 (second compound 10 µM) was 143 nM. The IC50 (second compound 31.6 µM) was 19 nM, the IC50 (second compound 100 µM) was < 9.49 nM and the viability, T/C (second compound 1 µM, first compound 0.00949 µM) was 88.4%. The viability, T/C (second compound 1 µM, first compound 0.03 µM) was 81.3%, the viability, T/C (second compound 1 µM, first compound 0.0949 µM) was 73.8% and the viability, T/C (second compound 1 µM, first compound 0.3 µM) was 58.8%. For the same compound, the viability, T/C (second compound 1 µM, first compound 0.949 µM) was 27.7%, the viability, T/C (second compound 1 µM, first compound 3 µM) was 9.76% and the viability, T/C (second compound 3.16 µM, first compound 0.00949 µM) was 81.1%. For the same compound, the viability, T/C (second compound 3.16 µM, first compound 0.03 µM) was 82%, the viability, T/C (second compound 3.16 µM, first compound 0.0949 µM) was 73% and the viability, T/C (second compound 3.16 µM, first compound 0.3 µM) was 59.5%. The viability, T/C (second compound 3.16 µM, first compound 0.949 µM) was 32%, the viability, T/C (second compound 3.16 µM, first compound 3 µM) was 11.1% and the viability, T/C (second compound 10 µM, first compound 0.00949 µM) was 75.1%. For the same compound, the viability, T/C (second compound 10 µM, first compound 0.03 µM) was 68.1%, the viability, T/C (second compound 10 µM, first compound 0.0949 µM) was 55.8% and the viability, T/C (second compound 10 µM, first compound 0.3 µM) was 39.2%. The viability, T/C (second compound 10 µM, first compound 0.949 µM) was 23.3%, the viability, T/C (second compound 10 µM, first compound 3 µM) was 9.97% and the viability, T/C (second compound 31.6 µM, first compound 0.00949 µM) was 58.4%. The viability, T/C (second compound 31.6 µM, first compound 0.03 µM) was 44.4%, the viability, T/C (second compound 31.6 µM, first compound 0.0949 µM) was 31.9% and the viability, T/C (second compound 31.6 µM, first compound 0.3 µM) was 24%. The viability, T/C (second compound 31.6 µM, first compound 0.949 µM) was 15.8%, the viability, T/C (second compound 31.6 µM, first compound 3 µM) was 8.83% and the viability, T/C (second compound 100 µM, first compound 0.00949 µM) was 24.2%. For the same compound, the viability, T/C (second compound 100 µM, first compound 0.03 µM) was 19.3%, the viability, T/C (second compound 100 µM, first compound 0.0949 µM) was 17.4% and the viability, T/C (second compound 100 µM, first compound 0.3 µM) was 14.6%. For the same compound, the viability, T/C (second compound 100 µM, first compound 0.949 µM) was 11.7% and the viability, T/C (second compound 100 µM, first compound 3 µM) was 7.45%.

In the case of Cn1ncnc1[C@H]1c2n[nH]c(=O)c3cc(F)cc(c23)N[C@@H]1c1ccc(F)cc1 + CC[C@@]1(O)C(=O)OCc2c1cc1n(c2=O)Cc2cc3c(CN(C)C)c(O)ccc3nc2-1, the IC50 (second compound 0.003 µM) is reported as 181 nM, the IC50 (second compound 0.00949 µM) is reported as 13.3 nM and the IC50 (second compound 0.03 µM) is reported as < 9.49 nM. The IC50 (second compound 0.0949 µM) was < 9.49 nM, the IC50 (second compound 0.3 µM) was < 9.49 nM and the viability, T/C (second compound 0.003 µM, first compound 0.00949 µM) was 82.7%. It also gave a viability, T/C (second compound 0.003 µM, first compound 0.03 µM) of 73.9%, a viability, T/C (second compound 0.003 µM, first compound 0.0949 µM) of 57.4% and a viability, T/C (second compound 0.003 µM, first compound 0.3 µM) of 41%. The viability, T/C (second compound 0.003 µM, first compound 0.949 µM) was 31.4%, the viability, T/C (second compound 0.003 µM, first compound 3 µM) was 12% and the viability, T/C (second compound 0.00949 µM, first compound 0.00949 µM) was 52.6%. The viability, T/C (second compound 0.00949 µM, first compound 0.03 µM) was 44.7%, the viability, T/C (second compound 0.00949 µM, first compound 0.0949 µM) was 33.8% and the viability, T/C (second compound 0.00949 µM, first compound 0.3 µM) was 30.1%. It also gave a viability, T/C (second compound 0.00949 µM, first compound 0.949 µM) of 19.5%, a viability, T/C (second compound 0.00949 µM, first compound 3 µM) of 12.9% and a viability, T/C (second compound 0.03 µM, first compound 0.00949 µM) of 23.6%. The viability, T/C (second compound 0.03 µM, first compound 0.03 µM) was 21.1%, the viability, T/C (second compound 0.03 µM, first compound 0.0949 µM) was 17.4% and the viability, T/C (second compound 0.03 µM, first compound 0.3 µM) was 16.9%. The viability, T/C (second compound 0.03 µM, first compound 0.949 µM) was 14.5%, the viability, T/C (second compound 0.03 µM, first compound 3 µM) was 8.5% and the viability, T/C (second compound 0.0949 µM, first compound 0.00949 µM) was 11%. It also gave a viability, T/C (second compound 0.0949 µM, first compound 0.03 µM) of 10.7%, a viability, T/C (second compound 0.0949 µM, first compound 0.0949 µM) of 9.81% and a viability, T/C (second compound 0.0949 µM, first compound 0.3 µM) of 8.52%. The viability, T/C (second compound 0.0949 µM, first compound 0.949 µM) was 7.84%, the viability, T/C (second compound 0.0949 µM, first compound 3 µM) was 5.32% and the viability, T/C (second compound 0.3 µM, first compound 0.00949 µM) was 4.91%. For the same compound, the viability, T/C (second compound 0.3 µM, first compound 0.03 µM) was 5.12%, the viability, T/C (second compound 0.3 µM, first compound 0.0949 µM) was 4.52% and the viability, T/C (second compound 0.3 µM, first compound 0.3 µM) was 4.48%. It also gave a viability, T/C (second compound 0.3 µM, first compound 0.949 µM) of 3.83% and a viability, T/C (second compound 0.3 µM, first compound 3 µM) of 2.41%.
